Data published in ChEMBL document CHEMBL5465560, “Selectivity Literature for EUbOPEN Chemogenomic Library” (2024).
Changes are numbered by the printed parent chain.

Assays:
[1] = biological target: Platelet-derived growth factor receptor beta (Homo sapiens, UniProt P09619); experiment: Selectivity interaction (KinomeScan (DiscoverX)) EUB0000045b PDGFRB
[2] = biological target: Vascular endothelial growth factor receptor 2 (Homo sapiens, UniProt P35968); experiment: Selectivity interaction (KinomeScan (DiscoverX)) EUB0000695a KDR; settings: at 100 nM
Vascular endothelial growth factor receptor 2, sequence (P35968 whole entry, the tested form may be a part): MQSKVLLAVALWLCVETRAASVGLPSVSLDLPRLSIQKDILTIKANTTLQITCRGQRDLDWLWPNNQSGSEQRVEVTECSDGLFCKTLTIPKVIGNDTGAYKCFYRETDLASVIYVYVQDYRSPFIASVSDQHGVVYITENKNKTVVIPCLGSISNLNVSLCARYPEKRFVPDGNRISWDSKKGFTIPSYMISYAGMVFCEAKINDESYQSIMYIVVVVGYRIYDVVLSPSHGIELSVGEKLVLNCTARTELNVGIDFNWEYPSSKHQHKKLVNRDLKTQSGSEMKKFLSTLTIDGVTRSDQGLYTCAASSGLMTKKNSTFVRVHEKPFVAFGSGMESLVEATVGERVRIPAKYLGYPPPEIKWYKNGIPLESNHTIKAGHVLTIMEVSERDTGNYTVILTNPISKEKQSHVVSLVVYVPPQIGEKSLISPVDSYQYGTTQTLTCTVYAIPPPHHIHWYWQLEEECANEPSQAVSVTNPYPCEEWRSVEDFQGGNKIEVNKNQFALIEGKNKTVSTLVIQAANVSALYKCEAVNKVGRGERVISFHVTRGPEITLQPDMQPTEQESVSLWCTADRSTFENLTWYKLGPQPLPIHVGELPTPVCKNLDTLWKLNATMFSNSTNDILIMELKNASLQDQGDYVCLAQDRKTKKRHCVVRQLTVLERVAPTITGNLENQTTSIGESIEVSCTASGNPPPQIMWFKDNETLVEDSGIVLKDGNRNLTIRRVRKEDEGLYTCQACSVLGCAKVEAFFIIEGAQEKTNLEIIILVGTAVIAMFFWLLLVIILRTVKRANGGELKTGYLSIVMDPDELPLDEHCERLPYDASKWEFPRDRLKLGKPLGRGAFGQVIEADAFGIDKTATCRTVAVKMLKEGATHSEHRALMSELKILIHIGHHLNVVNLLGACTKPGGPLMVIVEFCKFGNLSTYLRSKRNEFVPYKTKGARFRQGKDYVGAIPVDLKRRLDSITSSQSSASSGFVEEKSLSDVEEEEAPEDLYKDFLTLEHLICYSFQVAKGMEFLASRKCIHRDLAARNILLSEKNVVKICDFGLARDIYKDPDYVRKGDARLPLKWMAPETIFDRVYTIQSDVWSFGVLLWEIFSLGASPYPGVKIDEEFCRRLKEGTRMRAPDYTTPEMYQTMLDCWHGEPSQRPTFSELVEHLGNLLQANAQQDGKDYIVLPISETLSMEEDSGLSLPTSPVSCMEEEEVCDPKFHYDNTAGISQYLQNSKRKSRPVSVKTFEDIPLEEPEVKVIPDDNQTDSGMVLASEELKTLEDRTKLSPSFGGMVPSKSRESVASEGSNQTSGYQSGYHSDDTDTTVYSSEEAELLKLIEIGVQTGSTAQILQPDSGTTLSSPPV

[3] = biological target: Epithelial discoidin domain-containing receptor 1 (Homo sapiens) (UniProt Q08345); experiment: Selectivity interaction (KinomeScan (DiscoverX)) EUB0001619a DDR1; settings: at 1 µM
Epithelial discoidin domain-containing receptor 1 (Homo sapiens), sequence (Q08345 whole entry, the tested form may be a part): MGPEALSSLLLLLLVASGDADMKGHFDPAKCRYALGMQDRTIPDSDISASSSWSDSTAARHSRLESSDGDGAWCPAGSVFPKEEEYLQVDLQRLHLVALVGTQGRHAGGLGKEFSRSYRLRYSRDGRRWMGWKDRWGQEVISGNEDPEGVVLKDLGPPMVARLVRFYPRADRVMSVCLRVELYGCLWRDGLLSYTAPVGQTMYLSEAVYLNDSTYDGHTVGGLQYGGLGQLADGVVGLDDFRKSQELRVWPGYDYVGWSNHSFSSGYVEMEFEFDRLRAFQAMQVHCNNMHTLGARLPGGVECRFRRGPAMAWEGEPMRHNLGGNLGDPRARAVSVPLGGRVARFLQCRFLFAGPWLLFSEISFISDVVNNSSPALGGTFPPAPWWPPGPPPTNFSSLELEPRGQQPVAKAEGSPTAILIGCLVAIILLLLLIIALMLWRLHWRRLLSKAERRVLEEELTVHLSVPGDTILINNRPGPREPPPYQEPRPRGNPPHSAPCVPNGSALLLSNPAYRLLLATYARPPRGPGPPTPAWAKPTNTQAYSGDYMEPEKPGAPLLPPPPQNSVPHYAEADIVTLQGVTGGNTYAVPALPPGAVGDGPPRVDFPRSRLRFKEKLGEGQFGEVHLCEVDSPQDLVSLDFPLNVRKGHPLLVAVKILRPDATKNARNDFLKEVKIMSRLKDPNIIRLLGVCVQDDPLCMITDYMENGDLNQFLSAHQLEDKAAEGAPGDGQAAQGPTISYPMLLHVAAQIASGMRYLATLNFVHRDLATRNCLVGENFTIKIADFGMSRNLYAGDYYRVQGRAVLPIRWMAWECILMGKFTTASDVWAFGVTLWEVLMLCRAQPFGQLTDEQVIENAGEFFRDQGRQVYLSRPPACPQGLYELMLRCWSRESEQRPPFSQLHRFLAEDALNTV

[4] = biological target: Homeodomain-interacting protein kinase 2 (Homo sapiens, UniProt Q9H2X6); experiment: Selectivity interaction (KinomeScan (DiscoverX)) EUB0001619a HIPK2; settings: at 1 µM
Homeodomain-interacting protein kinase 2, sequence (Q9H2X6 whole entry, looked up): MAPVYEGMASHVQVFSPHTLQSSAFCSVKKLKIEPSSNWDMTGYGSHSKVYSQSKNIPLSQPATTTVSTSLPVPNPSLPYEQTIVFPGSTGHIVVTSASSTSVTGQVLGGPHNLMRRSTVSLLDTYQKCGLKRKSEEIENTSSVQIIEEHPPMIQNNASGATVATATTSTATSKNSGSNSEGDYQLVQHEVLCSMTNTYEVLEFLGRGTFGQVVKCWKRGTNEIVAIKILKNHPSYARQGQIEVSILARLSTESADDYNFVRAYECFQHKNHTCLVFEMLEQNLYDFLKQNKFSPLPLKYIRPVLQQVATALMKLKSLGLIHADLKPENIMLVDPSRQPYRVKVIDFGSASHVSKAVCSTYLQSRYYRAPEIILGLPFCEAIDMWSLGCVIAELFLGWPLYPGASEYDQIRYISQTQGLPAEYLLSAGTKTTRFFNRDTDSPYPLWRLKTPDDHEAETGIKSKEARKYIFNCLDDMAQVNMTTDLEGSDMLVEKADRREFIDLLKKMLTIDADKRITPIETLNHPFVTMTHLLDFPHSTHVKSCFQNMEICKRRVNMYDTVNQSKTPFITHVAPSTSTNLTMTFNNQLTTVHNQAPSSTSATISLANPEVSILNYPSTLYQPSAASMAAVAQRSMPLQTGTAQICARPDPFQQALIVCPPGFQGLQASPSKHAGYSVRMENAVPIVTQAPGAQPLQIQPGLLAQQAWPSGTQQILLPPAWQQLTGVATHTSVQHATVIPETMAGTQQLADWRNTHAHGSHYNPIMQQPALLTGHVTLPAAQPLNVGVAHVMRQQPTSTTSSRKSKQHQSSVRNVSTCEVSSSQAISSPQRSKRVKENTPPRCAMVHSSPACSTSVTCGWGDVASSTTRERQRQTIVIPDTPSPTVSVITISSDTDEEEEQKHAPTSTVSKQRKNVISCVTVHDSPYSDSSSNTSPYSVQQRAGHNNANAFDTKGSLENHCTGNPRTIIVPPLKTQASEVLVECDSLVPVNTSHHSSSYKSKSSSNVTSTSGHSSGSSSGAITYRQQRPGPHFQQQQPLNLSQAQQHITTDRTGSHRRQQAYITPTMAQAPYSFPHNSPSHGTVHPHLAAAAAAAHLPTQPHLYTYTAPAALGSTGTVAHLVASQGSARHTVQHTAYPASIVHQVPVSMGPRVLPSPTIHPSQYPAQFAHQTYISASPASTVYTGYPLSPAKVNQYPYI

[5] = biological target: Receptor-type tyrosine-protein kinase FLT3 (Homo sapiens) (UniProt P36888); experiment: (§1) Selectivity interaction (KinomeScan (DiscoverX)) EUB0000607a FLT3; settings: at 10 µM
[6] = test system: T1, Receptor-type tyrosine-protein kinase FLT3 (Homo sapiens), P36888 [D835H]; experiment: as §1; settings: at 10 µM
T1 sequence (whole entry): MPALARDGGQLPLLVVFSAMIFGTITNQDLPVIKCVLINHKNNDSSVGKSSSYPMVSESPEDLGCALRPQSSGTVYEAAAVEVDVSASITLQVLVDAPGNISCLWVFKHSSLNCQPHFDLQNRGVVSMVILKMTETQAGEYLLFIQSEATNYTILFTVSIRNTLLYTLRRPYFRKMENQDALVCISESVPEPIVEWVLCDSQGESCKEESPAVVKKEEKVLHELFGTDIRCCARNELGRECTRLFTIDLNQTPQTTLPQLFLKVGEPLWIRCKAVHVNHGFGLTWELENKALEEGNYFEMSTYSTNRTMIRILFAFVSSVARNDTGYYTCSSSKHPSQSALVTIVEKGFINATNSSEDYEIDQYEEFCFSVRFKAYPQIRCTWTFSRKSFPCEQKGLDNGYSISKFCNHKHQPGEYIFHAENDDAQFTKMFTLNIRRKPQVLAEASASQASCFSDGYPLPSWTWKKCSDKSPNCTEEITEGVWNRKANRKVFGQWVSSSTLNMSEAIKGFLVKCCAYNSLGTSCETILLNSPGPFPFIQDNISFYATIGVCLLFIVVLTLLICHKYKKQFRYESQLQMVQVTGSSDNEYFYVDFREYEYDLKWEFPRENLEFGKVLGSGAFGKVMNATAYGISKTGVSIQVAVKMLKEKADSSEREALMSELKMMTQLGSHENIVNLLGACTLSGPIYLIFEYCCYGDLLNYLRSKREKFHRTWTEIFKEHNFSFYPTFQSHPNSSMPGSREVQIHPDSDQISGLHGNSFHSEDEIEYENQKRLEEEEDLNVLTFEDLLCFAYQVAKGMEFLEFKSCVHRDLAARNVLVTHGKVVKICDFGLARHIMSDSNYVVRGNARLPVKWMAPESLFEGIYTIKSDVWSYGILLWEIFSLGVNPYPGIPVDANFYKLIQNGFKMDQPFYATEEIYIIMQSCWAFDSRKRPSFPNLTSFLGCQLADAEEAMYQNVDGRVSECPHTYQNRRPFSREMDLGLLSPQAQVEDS

[7] = test system: T2, Receptor-type tyrosine-protein kinase FLT3 (Homo sapiens), P36888 [D835Y]; experiment: as §1; settings: at 10 µM
T2 sequence (whole entry): T1 sequence (whole entry) with H835Y

[8] = biological target: T3, Serine/threonine-protein kinase NLK (Homo sapiens) (UniProt Q9UBE8); experiment: Selectivity interaction (KinomeScan (DiscoverX)) EUB0000655a NLK; settings: at 10 µM
T3 sequence (whole entry): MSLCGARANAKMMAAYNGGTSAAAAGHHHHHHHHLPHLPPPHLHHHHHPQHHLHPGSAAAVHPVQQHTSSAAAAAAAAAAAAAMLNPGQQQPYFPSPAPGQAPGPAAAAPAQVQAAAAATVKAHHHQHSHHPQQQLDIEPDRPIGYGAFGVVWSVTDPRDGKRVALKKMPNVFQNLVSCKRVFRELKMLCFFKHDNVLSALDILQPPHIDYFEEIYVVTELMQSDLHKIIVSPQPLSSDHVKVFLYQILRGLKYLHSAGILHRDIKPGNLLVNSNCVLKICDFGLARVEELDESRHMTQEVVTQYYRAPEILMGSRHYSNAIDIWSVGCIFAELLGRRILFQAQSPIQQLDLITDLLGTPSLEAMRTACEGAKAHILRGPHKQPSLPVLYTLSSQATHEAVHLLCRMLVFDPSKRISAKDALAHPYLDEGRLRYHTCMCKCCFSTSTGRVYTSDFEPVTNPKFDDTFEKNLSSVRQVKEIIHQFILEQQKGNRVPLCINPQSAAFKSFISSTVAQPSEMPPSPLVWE

Platelet-derived growth factor receptor beta, sequence (P09619 whole entry): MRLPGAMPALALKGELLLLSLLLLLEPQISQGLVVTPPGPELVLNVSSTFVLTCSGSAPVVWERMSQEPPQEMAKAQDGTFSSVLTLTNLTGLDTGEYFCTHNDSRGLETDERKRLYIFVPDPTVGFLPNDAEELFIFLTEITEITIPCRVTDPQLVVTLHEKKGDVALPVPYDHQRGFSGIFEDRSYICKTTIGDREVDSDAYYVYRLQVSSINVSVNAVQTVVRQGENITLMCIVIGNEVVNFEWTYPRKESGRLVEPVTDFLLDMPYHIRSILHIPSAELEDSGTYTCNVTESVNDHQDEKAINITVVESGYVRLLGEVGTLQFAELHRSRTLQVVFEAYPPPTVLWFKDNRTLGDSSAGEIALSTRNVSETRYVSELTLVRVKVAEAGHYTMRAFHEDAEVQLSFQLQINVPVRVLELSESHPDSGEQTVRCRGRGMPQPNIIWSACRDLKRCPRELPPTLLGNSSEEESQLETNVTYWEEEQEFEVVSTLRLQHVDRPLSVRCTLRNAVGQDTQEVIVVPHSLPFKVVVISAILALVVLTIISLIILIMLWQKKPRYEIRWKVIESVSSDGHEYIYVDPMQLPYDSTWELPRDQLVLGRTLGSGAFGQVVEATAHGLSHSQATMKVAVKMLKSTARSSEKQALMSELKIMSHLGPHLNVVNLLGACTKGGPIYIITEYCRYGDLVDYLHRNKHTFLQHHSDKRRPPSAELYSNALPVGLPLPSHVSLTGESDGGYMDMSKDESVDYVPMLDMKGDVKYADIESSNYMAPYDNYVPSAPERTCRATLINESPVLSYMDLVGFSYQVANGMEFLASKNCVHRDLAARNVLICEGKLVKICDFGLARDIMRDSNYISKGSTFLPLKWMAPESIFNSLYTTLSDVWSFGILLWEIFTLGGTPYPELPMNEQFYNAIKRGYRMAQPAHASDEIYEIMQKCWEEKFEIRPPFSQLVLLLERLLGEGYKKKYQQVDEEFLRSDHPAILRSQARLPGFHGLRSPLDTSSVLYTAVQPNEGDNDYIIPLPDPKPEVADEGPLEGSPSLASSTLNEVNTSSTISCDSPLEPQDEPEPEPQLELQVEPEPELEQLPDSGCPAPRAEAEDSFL

C=CC(=O)Nc1cc(-n2c(=O)ccc3cnc4ccc(-c5ccc(NS(C)(=O)=O)cc5)cc4c32)ccc1C
% of control ([1]; at 1 µM): 76% | % of control ([1]; at 10 µM): 63%

Cc1cc(F)c(C(=O)Nc2cccc(-c3nncn3C(C)C)n2)cc1-n1cnc(C2CC2)c1
% of control [2]: 100%

N#Cc1cccc(-c2c[nH]c3ncnc(N4CCOCC4)c23)c1
% of control [3]: 100% | % of control [4]: 65%

CNC(=O)Nc1ccc(-c2nc(N3CC4CCC(C3)O4)c3cnn(C4CCC5(CC4)OCCO5)c3n2)cc1
% of control [5]: 75% | % of control [6]: 82% | % of control [7]: 99%

CN(C)CCOc1ccc(-c2nc(-c3ccncc3)c(-c3ccc4c(c3)CC/C4=N\O)[nH]2)cc1
% of control [8]: 90%
